Experimental data taken from article PMC10526264, “VprBP/DCAF1 Triggers Melanomagenic Gene Silencing through Histone H2A Phosphorylation” (Biomedicines, 2023).

Target: VprBP/DCAF1 (Vpr binding protein) (Homo sapiens, UniProt Q9Y4B6)
Test: Western blot of H2AT120p (VprBP substrate mark) in G361 and MeWo melanoma cells treated […] h with […] B32B3
Type: cell-based

Chain of VprBP/DCAF1 (Vpr binding protein) (Q9Y4B6 whole entry): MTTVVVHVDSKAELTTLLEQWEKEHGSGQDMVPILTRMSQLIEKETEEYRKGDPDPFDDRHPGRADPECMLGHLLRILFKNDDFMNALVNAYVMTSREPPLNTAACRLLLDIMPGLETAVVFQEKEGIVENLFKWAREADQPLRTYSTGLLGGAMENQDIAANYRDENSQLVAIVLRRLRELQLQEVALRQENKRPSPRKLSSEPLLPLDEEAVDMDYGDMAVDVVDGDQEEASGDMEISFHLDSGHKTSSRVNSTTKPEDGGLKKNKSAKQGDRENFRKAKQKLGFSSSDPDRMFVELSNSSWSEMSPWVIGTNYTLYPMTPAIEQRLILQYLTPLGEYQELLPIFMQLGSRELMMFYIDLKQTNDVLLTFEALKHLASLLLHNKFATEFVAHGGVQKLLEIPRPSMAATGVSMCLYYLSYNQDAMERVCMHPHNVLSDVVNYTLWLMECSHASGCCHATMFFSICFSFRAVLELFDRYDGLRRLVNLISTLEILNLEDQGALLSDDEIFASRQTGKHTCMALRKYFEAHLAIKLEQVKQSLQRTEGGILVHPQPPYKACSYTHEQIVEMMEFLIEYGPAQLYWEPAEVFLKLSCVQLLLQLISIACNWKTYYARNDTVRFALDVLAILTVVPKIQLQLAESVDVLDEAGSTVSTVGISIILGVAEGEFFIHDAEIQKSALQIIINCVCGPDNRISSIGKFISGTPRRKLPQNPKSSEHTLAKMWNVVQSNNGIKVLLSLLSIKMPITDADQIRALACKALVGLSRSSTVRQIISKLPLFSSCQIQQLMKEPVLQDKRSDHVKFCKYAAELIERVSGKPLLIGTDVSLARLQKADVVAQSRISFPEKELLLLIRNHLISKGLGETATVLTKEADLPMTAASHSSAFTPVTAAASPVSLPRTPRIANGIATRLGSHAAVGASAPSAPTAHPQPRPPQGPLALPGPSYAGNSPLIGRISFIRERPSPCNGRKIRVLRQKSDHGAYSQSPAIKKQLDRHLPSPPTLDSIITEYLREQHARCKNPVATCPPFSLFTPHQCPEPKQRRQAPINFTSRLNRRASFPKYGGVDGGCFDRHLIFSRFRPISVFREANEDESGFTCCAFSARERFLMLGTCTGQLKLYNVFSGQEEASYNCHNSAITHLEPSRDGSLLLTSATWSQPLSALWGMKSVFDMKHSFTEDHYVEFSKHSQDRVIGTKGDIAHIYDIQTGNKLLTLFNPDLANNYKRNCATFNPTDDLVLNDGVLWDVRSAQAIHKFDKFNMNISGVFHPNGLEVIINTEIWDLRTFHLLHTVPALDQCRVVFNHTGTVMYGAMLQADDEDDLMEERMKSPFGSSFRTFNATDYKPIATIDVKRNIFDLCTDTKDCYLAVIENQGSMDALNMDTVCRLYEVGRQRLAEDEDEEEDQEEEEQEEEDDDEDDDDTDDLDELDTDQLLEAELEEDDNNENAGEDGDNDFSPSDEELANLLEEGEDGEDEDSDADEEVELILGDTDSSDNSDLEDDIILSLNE

## C(=N\Nc1ncnc2sc3c(c12)CCCC3)/c1c[nH]c2ccccc12 [B32B3]
  IC50: 100 nM
